Where a SMILES comes first, the peptide text is derived from it. Where no end group is shown, it is not given here.
test system: E. coli O111:B4; test: LPS competition assay on random-sequence peptide microarray (binding of fluorescently labeled bacteria with and without excess free LPS); conditions: fluorescent intensity of SYTO 9 labeled E. coli O111:B4 binding to the arrayed peptide without vs with excess non-labeled LPS of the same strain
Procedure: FIG. 2. Schematic representation of the bacterial binding assay. PEG3,400 linker modified random sequence peptide microarrays were incubated (FIG. 2A) with fluorescently labeled bacteria and (FIG. 2B) with bacteria in presence of excess free LPS.
Microarray screening. Aliquots of the bacterial cultures were centrifuged to isolate the cells and were washed twice with an equal volume of PBS buffer (pH 7.2). After each wash, bacteria were resuspended and centrifuged. Cells were fluorescently stained with SYTO 9 green-fluorescent cell-permeable nucleic acid dye (Molecular Probes, Eugene, Oreg.). Dye was added to a 500 microliter suspension of bacteria at a concentration of 20 μM in PBS buffer and shaken for 1 hr at 37 degrees Centigrade. After incubation, the cell suspension was centrifuged, isolated, and washed twice with 1 ml PBS buffer. […] Each array was equipped with an Agilent hybridization chamber, and then 450 microliter solution of E. coli in PBS buffer supplemented with 0.03% FBS was added. The arrays were gently shaken on a platform for 1 hr at 37 degrees Centigrade temperature. After incubation, the hybridization chamber was removed, and unbound cells were washed away from the array by dipping it into a 50 ml solution of the hybridization buffer. This step was repeated twice, and the buffer was changed between washings. A final wash with nanopure water was used to remove salts from the array. Slides were then briefly centrifuged at 1500 rpm for 2 min to dry the arrays.
Data analysis. The arrays were scanned using a laser scanner (PERKIN-ELMER PROSCANARRAY HT) and quantified using GENEPIX PRO6.0 (Molecular Devices, Inc.) in order to determine the fluorescence intensity of each probe and identify its corresponding peptide sequence. A statistical comparison of microarray data was done with GENESPRING GX 7.3 (AGILENT, INC, Palo Alto, Calif., USA) by importing the image-processed data from GENEPIX PRO6.0. Median signal intensities were used in the calculations. For statistical comparisons, each slide was normalized to 50th percentile. Also, measurements of less than 0.01 were set to 0.01. Results were represented on a heatmap in order to be able to compare the difference in intensities with and without excess LPS.
LPS competition assay. Since approximately 90% of bacterial surface is comprised of LPS it was expected that bacteria will bind to random peptide microarray mostly through LPS. […] Same number of cells stained with SYTO-9® was used to probe the microarrays with and without excess non-labeled LPS from the same strain (FIG. 2).

In order of falling “Ratio ECO/(ECO + LPS)” value:
1. 1 (WWRRKKWHKHKRKHPRFGSC) [compound 1]  18.76
2. 2 (HWKRRHKHKWPKRHPHKGSC) [compound 2]  13.22
3. 3 (HWKRHHRPKHKHHRHKHGSC) [compound 3]  11.48
4. 4 (HFHHWKWKHHHHRHRRFGSC) [compound 4]  11.28
5. 5 (WKKKRKHRHKKHWHPWRGSC) [compound 5]  10.3
6. 6 (RHWRKPRKWHKKWPPHRGSC) [compound 6]  9.881
7. 7 (WKRPWHRWHPKRRKWRHGSC) [compound 7]  9.611
8. 8 (WHHWFHHKKKKPWWKKKGSC) [compound 8]  8.832
9. 9 (HFRKWHKRRWKHHKKWKGSC) [compound 9]  8.435
10. 10 (HPWWWHHKKRRHHKHKKGSC) [compound 10]  5.345
11. 11 (PWWKWRKRKHPKKHHKRGSC) [compound 11]  4.687
12. 12 (WKWKRHWKWPHRRKHFFGSC) [compound 12]  4.576
13. 13 (WHRKFFRWRFHRHKKHKGSC) [compound 13]  4.547
14. 14 (HRKRPKRHHKRHWPRWKGSC) [compound 14]  4.429
15. 15 (KKFHPHFKPWHFRHKKPGSC) [compound 15]  4.303
16. 16 (KHPFWHPHRRHKKKRWFGSC) [compound 16]  4.283
17. 17 (WHHKWRFWKHFRHKRHFGSC) [compound 17]  4.216
18. 18 (SIADIHKRKFRVRRKHIGSC) [compound 18]  4.04
19. 19 (PWKFHRHWHHHKHWKWKGSC) [compound 19]  3.644
20. 20 (HHWWRKRRRKRHRKHWKGSC) [compound 20]  3.527
21. 21 (RWQKKVKMKRDHVYFRMGSC) [compound 21]  3.526
22. 22 (RWFPKKHHHRWRKWWKKGSC) [compound 22]  3.506
23. 23 (HHHHKRKHFWRPRHPRKGSC) [compound 23]  3.493
24. 24 (HKRHKKHFKFFRWHRKWGSC) [compound 24]  3.428
25. 25 (TKRIHKWPQDAYRIRRGGSC) [compound 25]  3.355
26. 26 (RTYWNYGIMRHNKTRKGGSC) [compound 26]  3.331
27. 27 (WHWHHWKHKKRRHHWRRGSC) [compound 27]  3.261
28. 28 (KHWHWHKRKKHHRKFFWGSC) [compound 28]  3.0313
29. 29 (RKHHKKPHKRKRWKWWPGSC) [compound 29]  3.021
30. 30 (RFHWKHRRKWKHHHPRRGSC) [compound 30]  2.944
31. 31 (HWHHRWWHHWKHPHHWRGSC) [compound 31]  2.854
32. 32 (WKFRHRHHRHHWHKKWKGSC) [compound 32]  2.844
33. 33 (HRKPKFRHHHFKWKHWKGSC) [compound 33]  2.786
34. 34 (RRWWRKRFWHHRWHRRKGSC) [compound 34]  2.423
35. 35 (HRWWFKKKHRFRWWKRWGSC) [compound 35]  2.404
36. 36 (RFFFHKWRRWRRRKPPRGSC) [compound 36]  2.378
37. 37 (RWRRHKHFKRPHRKHKRGSC) [compound 37]  2.375
38. 38 (WWHHKWFKHKKFWRHKFGSC) [compound 38]  2.349
39. 39 (WKPWFHPRKHHKWRHWHGSC) [compound 39]  2.334
40. 40 (KHKWWRWHKWHWWFRKHGSC) [compound 40]  2.322
41. 41 (KWKHHKKFRKRKRHWFHGSC) [compound 41]  2.316
42. 42 (HWHPRWHKHKFKHWRWHGSC) [compound 42]  2.273
43. 43 (WRFKHFRWKRFKHHHKKGSC) [compound 43]  2.263
44. 44 (IYNKRSQVRRKGFKKKYGSC) [compound 44]  2.169
45. 45 (RKRKWHHPWHWRRKRRWGSC) [compound 45]  2.136
46. 46 (RHWRPKFRKFRWWRWHHGSC) [compound 46]  2.125
47. 47 (FHKKRHFKRRHKFWWWRGSC) [compound 47]  2.114
48. 48 (HKWHRKKFHKHRFKHHKGSC) [compound 48]  2.112
49. 49 (WFWKHKKWRRHPRKWHWGSC) [compound 49]  2.104
50. 50 (EPKLWFKPRRGGYRHRHGSC) [compound 50]  2.035
51. 51 (HRKWHWPWKWPWKRKRWGSC) [compound 51]  2.033
52. 52 (RPKPHRHWKPKFPHHHWGSC) [compound 52]  2.031
53. 53 (WRRSTPVGPWTWFGKFLGSC) [compound 53]  1.974
54. 54 (RRFRHWWRWRKRRRKWRGSC) [compound 54]  1.914

test system: not listed separately; test: Serum stability (serum incubation and western blot); type: in vitro ADME, human; conditions: fresh human serum, 37° C., pH=7.4, starting concentration 10 μM, western blot
Procedure: Serum stability of Construct 1. Over the last decade, there was a considerable interest in developing antimicrobial peptides as intravenously administered antibiotics. In this respect, a common criticism of peptide-based drugs has been their susceptibility to endogenous proteases. […] To test the in vitro stability of Construct 1 we used a serum-incubation and western blot analysis. Construct 1 was incubated in fresh human serum at 37° C. and pH=7.4 with a starting concentration of 10 μM. Samples were withdrawn at predetermined time points and each sample diluted 20-fold with loading buffer prior to analysis by western blot (FIG. 7).

In the case of “Construct 1: tetravalent mPEG-maleimide (MW 20 kDa) conjugated with QF8 peptide (HRKPKFRHHHFKWKHWKGSC; also: conjugated with tetravalent 20 kDa mPEG-maleimide)”, the “Time for which proteolysis was resisted” value is reported as “more than 8 hours”.

same assay, conditions: human serum, western blot probed with Streptavidin-AlexaFluor 647 (FIG. 7)

With N=C(N)NCCC[C@H](NC(=O)[C@H](Cc1ccccc1)NC(=O)[C@H](CCCCN)NC(=O)[C@@H]1CCCN1C(=O)[C@H](CCCCN)NC(=O)[C@H](CCCNC(=N)N)NC(=O)[C@@H](N)Cc1c[nH]cn1)C(=O)N[C@@H](Cc1c[nH]cn1)C(=O)N[C@@H](Cc1c[nH]cn1)C(=O)N[C@@H](Cc1c[nH]cn1)C(=O)N[C@@H](Cc1ccccc1)C(=O)N[C@@H](CCCCN)C(=O)N[C@@H](Cc1c[nH]c2ccccc12)C(=O)N[C@@H](CCCCN)C(=O)N[C@@H](Cc1c[nH]cn1)C(=O)N[C@@H](Cc1c[nH]c2ccccc12)C(=O)N[C@@H](CCCCN)C(=O)NCC(=O)N[C@@H](CO)C(=O)N[C@@H](CS)C(=O)O [SEQ ID NO: 33] (H-HRKPKFRHHHFKWKHWKGSC-OH; N-terminus and C-terminus assumed) the “Degradation in human serum, monomeric peptide vs tetravalent PEG scaffold” value was “degraded much faster”.
In the case of “Construct 1: tetravalent mPEG-maleimide (MW 20 kDa) conjugated with QF8 peptide (HRKPKFRHHHFKWKHWKGSC; also: conjugated with tetravalent 20 kDa mPEG-maleimide)”, the “Degradation in human serum, monomeric peptide vs tetravalent PEG scaffold” value is reported as “prolonged the half-life”.

test system: LPS; test: not given; conditions: Morales et al., 2009; cited from earlier work

In the case of “EFSNPTAQVFPDFWMSDGSC [NEG-1, negative control peptide, reference compound]”, the “Binding to the bacteria and to LPS” value is given as “bind neither to the bacteria nor to LPS”.

test system: E. coli O111:B4; test: In vitro growth inhibition assay (turbidity at 600 nm); type: cell-based; conditions: added at mid-logarithmic phase, QF8 at 25 micrometers, NEG-1 at 100 micrometers, Construct 1 at 7, 10, and 25 micrometers, vs untreated bacteria
Procedure: FIG. 6. Bacterial growth inhibition assays in presence of (a) growth media; (b) negative control peptide NEG1 at 100 micromolar; (c) 25 micromolar peptide QF8 (SEQ ID NO: 33 Table 2); (d) 7 micrommolar QF8-PEG Construct 1; (e) 10 micromolar QF8-PEG Construct 1; (f) 17.5 micromolar QF8-PEG construct 1; (g) 25 micromolar QF8-PEG Construct 1; (h) 100 IU penicillin/streptomycin as a positive control.
In vitro growth inhibition assays. Growth of E. coli O111:B4 was assessed in the presence of different concentrations of NEG-1, QF8, and Construct 1 using turbidity at 600 nm. […]
In vitro inhibition assays. […] Growth was monitored as turbidity at 600 nm. Experiments were performed at 30 degrees Centigrade in microtiter plates with 100 microliters of culture using a Spectra Max Plus microtiter plate reader with Soft Max Pro Software (Molecular devices). The turbidity was measured every 5 minutes and the plate was shaken for 30 seconds before each measurement. Bacteria concentration was calculated according to the McFarland general method using the absorbance at 600 nm of a series of mixtures of 1% barium chloride and 1% sulfuric acid.

In the case of “EFSNPTAQVFPDFWMSDGSC [NEG-1, negative control peptide, reference compound]”, the “Growth of E. coli O111:B4 (growth curves, bacterial count)” value is reported as “no changes”.
With “Construct 1: tetravalent mPEG-maleimide (MW 20 kDa) conjugated with QF8 peptide (HRKPKFRHHHFKWKHWKGSC; also: conjugated with tetravalent 20 kDa mPEG-maleimide)” the “Growth of E. coli O111:B4 (growth curves, bacterial count)” value was “dramatic decrease in bacterial count”.
